# From the supplement of paper PMC5412046
# Structures can show the parent of a compound that is named as a salt.
# Tests used:
# SB.mhdgc-1 [1] = assay: area under the dose-response curve of % viability (trapezoidal, 11 doses) (% viability x log10 concentration); higher = less cytotoxic; details: SB.mhdgc-1 (hereditary c.1380delA CDH1 gastric cancer)
# Outline: (§1)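 Compound in DMSO was pinned (23 nL) at 11 threefold-diluted concentrations into wells containing 500 patient-derived gastric cancer cells, hereditary or sporadic, in 5 μL medium per 1536 well. Cells were incubated for 48 h, then exposed to CellTiter-Glo for 30 min at room temperature. Luminescence was measured on a ViewLux. The values are viability normalised to DMSO, either at the highest concentration or as trapezoidal area under the curve.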
# SB.msgc-1 [2] = assay: as above; details: SB.msgc-1 (sporadic gastric cancer)
# Outline: as §1
# SB.mhdgc-1 [3] = assay: viability at highest tested concentration (MAXR) relative to DMSO; higher = less cytotoxic; details: SB.mhdgc-1 (hereditary c.1380delA CDH1 gastric cancer)
# Outline: as §1
# SB.msgc-1 [4] = assay: as above; details: SB.msgc-1 (sporadic gastric cancer)
# Outline: as §1
Compound,area under the dose-response curve (SB.mhdgc-1 [1]),area under the dose-response curve (SB.msgc-1 [2]),viability (SB.mhdgc-1 [3]),viability (SB.msgc-1 [4])
COc1nc(-c2ccc3c(c2)OCO3)n(-c2ccc(NC(=O)CSc3ccccc3)cc2)n1 [Secin H3] (top concentration 46.0829 µM),539,586,97.3%,109%
C[C@H]([C@H](O)CCC(C)(C)O)[C@H]1CC[C@@]2(O)C/3=C/C(=O)[C@@H]4C[C@@H](O)[C@@H](O)C[C@]4(C)[C@H]3CC[C@]12C [Ecdysone] (top concentration 46.0829 µM),582,561,142%,112%
COc1ccc(/C=C\c2cc(OC)c(OC)c(OC)c2)cc1NC(=O)[C@H](N)CO [Ombrabulin] (top concentration 46.0829 µM),252,230,35.9%,29%
C=CC[C@@H]1/C=C(\C)C[C@H](C)C[C@H](OC)[C@H]2O[C@@](O)(C(=O)C(=O)N3CCCC[C@H]3C(=O)O[C@H](/C(C)=C/[C@@H]3CC[C@@H](O)[C@H](OC)C3)[C@H](C)[C@@H](O)CC1=O)[C@H](C)C[C@@H]2OC [FK-506] (top concentration 46.0829 µM),462,533,86.3%,68.7%
CC[C@H](CO)Nc1nc(NCc2ccccc2)c2ncn(C(C)C)c2n1 [Seliciclib] (top concentration 46.0829 µM),413,505,42.5%,33.7%
CC(C)(C)c1cc(NC(=O)Nc2ccc(-c3cn4c(n3)sc3cc(OCCN5CCOCC5)ccc34)cc2)no1 [Quizartinib] (top concentration 46.0829 µM),537,434,85.4%,71.7%
COc1ccc(/C=C\c2cc(OC)c(OC)c(OC)c2)cc1O [Combretastatin A-4] (top concentration 46.0829 µM),273,462,34.6%,49.1%
CCOC1OC(=O)C[C@@H]1NC(=O)[C@@H]1CCCN1C(=O)[C@@H](NC(=O)c1ccc(N)c(Cl)c1)C(C)(C)C (some centres undefined) [VX-765] (top concentration 46.0829 µM),531,580,94.2%,117%
O=C(O)c1cccnc1Nc1cccc(C(F)(F)F)c1 [Niflumic acid] (top concentration 46.0829 µM),557,504,143%,67.9%
COc1cc(C(=O)NS(=O)(=O)c2ccccc2C)ccc1Cc1cn(C)c2ccc(NC(=O)OC3CCCC3)cc12 [Zafirlukast] (top concentration 46.0829 µM),420,281,3.38%,1.71%
COCCOc1nc(-c2ccc(Cl)c(Cl)c2)n(-c2ccc(NC(=O)CCl)cc2)n1 [MI-2] (top concentration 46.0829 µM),474,460,35.3%,59.3%
CCCOc1ccc2[nH]c(NC(=O)OC)nc2c1 [Oxibendazole] (top concentration 46.0829 µM),389,297,53.5%,44.5%
CCOC(=O)[C@@H](N)Cc1ccc(-c2cc(O[C@H](c3ccc(Cl)cc3-n3ccc(C)n3)C(F)(F)F)nc(N)n2)cc1.O=C(O)CNC(=O)c1ccccc1 [Telotristat etiprate] (top concentration 46.0829 µM),440,532,2.69%,51.3%
C[C@H]1CN(C[C@@H](C)N1)C2=C(F)C3=C(C(=C2F)N)C(=O)\C(=C/N3C4CC4)C(O)=O [Sparfloxacin] (top concentration 23.0415 µM),556,546,119%,97.3%
C1Cc2[nH]nc(-c3nn[nH]n3)c2C1 [MK-0354] (top concentration 46.0829 µM),450,499,98.4%,112%
CC(=O)O[C@@]12CO[C@@H]1C[C@H](O)[C@]3(C)[C@@H]2[C@H](OC(=O)C4=CC=CC=C4)[C@]5(O)C[C@H](O)/C(=C(/[C@@H](O)C3=O)C5(C)C)C [10-Deacetylbaccatin] (top concentration 46.0829 µM),451,448,61%,46.1%
COc1ccc2c(c1)[C@]13CCCCC1C(C2)N(C)CC3 (some centres undefined) [Dextromethorphan hydrobromide] (top concentration 46.0829 µM),557,520,85.6%,98.4%
NCCCC(O)(P(=O)(O)O)P(=O)(O)O.O.O.O.[Na+] [Alendronate] (top concentration 46.0829 µM),500,576,45.3%,120%
O=C1NC(O)CCN1[C@@H]1O[C@H](CO)[C@@H](O)[C@H]1O (some centres undefined) [Tetrahydrouridine] (top concentration 46.0829 µM),546,550,103%,113%
Cc1cccc(-c2n[nH]cc2-c2ccc3ncccc3n2)n1 [SJN 2511] (top concentration 46.0829 µM),560,558,121%,113%
CC(C)Oc1ccc(C(=O)N[C@H](CNC(=O)CN(C)C)Cc2ccc(-c3cn4cccc([C@H](C)O)c4n3)cc2)cc1Cl (top concentration 46.0829 µM),397,364,13.2%,38.2%
